Measured values published in ChEMBL document CHEMBL1136096, “Design and biological evaluation of novel antioxidants containing N-t-Butyl-N-hydroxylaminophenyl moieties” (Bioorg Med Chem Lett, 2003).

Columns and labels:
Assay type in all cases: functional
Gerbillinae [1] = test: In vitro inhibitory activity against lipid peroxidation in gerbils
Gerbillinae [2] = test: In vivo neuroprotective activity in gerbils (neuronal cell survival) before ischemic injury
Gerbillinae [3] = test: In vivo neuroprotective activity in gerbils (neuronal cell survival) after ischemic injury

| Compound | IC50 (Gerbillinae [1]) | Cell Survival (Gerbillinae [2]) | Cell Survival (Gerbillinae [3]) |
| --- | --- | --- | --- |
| CC(C)(C)N(O)c1ccc(C(=O)NCc2ccccn2)cc1 | 11.1 µM | – | – |
| CC(C)(C)N(O)c1ccc(C(=O)Nc2nccs2)cc1 | 1.44 µM | 57% | 81% |
| CC(C)(C)N(O)c1ccc(C(=O)Nc2ccccn2)cc1 | 4.3 µM | – | – |
| O=c1c2ccccc2[se]n1-c1ccccc1 [EBSELEN] | 68.9 µM | 58% | 58% |
